“Also recorded” adds a separate entry of the source. Like-named read-outs stand apart in the source and are kept apart here.
Experiments:
[1] = cited from earlier work
[2] = Model ecosystem: distribution, ecological magnification and Biodegradability Index; conditions: for biodegradability (in words): model ecosystem comparison; for Concentration of ethoxyaniline equivalents in Culex (mosquito) / Concentration of ethoxyaniline equivalents in Gambusia (fish) / Concentration of ethoxyaniline equivalents in H2O / Concentration of ethoxyaniline equivalents in Oedogonium (algae) / Concentration of ethoxyaniline equivalents in Physa (snail): 5.0 mg 3H-ethoxyaniline to Sorghum
Excerpt: After the amounts of the various metabolites have been calculated and a determination is made as to which of the metabolites are to be designated as "polar" and which are to be designated as "non-polar", a Biodegradability Index (amount of polar metabolites/amount of nonpolar metabolites) may be calculated. Remembering that nonpolar compounds, such as DDT are readily soluble in the fatty tissues, but are not readily soluble in water based solutions, and that the cell fluid is essentially a water based solution, the lower the Biodegradability Index, the lower the amount of biodegradability of the compound. The higher the amount of polarity, the greater the likelihood that the polar compound will dissolve in water, a very polar compound, and be eliminated from the cell.
The environmental fate of any new pesticide is a factor of paramount importance in determining how and where it might be used. The behavior of ^3 H-α-trichloromethyl-p-ethoxybenzyl-p-ethoxyaniline has been studied by the model ecosystem technique following application of 5.0 mg. of labeled compound to Sorghum plants. A summary of
metabolites from the organisms in the model ecosystem after 33 days were
identified by cochromatography with standards of known constitution, by
appropriate chromogenic reagents, and by high-resolution mass
spectrometry. The data of Table IV indicate the O-dealkylation of
Food Chem. 1 (1972). Ethoxychlor was found in the snail to 58.6 ppm and in the fish to 0.92 ppm, along with its ethylene and the mono- and bis-phenols formed by O-dealkylation. The ecological magnification (E.M.) of ethoxychlor, defined as the ratio of the parent material in the fish to the concentration in the water, was 1500-fold as compared with an E.M. of only 0.7-fold for the ethoxyaniline.
Comparing the Biodegradability Indices (B.I.=total recovered polar metabolites/total recovered nonpolar metabolites) the values are 0.44 for ethoxychlor and 2.0 for ethoxyaniline.

[3] = system: multifunction oxidase (MFO) enzymes; conditions: background; cited from earlier work
[4] = system: Female housefly; test: Metabolism of 3H-ethoxyaniline by female RSP housefly; conditions: for Female housefly, percent 3H in Excreta / Female housefly, percent 3H in Homogenate: 24 hr after topical 1.0 μg 3H-ethoxyaniline (compound III)
Method: (§1) The compounds of the present invention were tested for insecticidal activity by standard methods, and compared with the insecticidal activities of DDT and symmetrical analogs of DDT, such methoxychlor. Toxicological methods for the determination of the topical LD50 values to adult female SNAIDM and RSP houseflies, Musca domestica L. and to Phormia regina, and LC50 values to Culex pipiens quinquefasciatus Say, and Anopheles albimanus Weid mosquitoes were described by Metcalf el al., 44 Bull. World Health Org. 363 (1971). The methods for evaluation of metabolism by mouse liver homogenate and by female RSP housefly and salt-marsh caterpillar larvae Estigmene acrea Drury, were described by Kapoor et al., 18 J. Agr. Food Chem. 1145 (1970). The techniques for model eocsystem evluation were described by Metcalf et al., 5 J. Environ. Sci. Tech. 709 (1971).
(§2) The biodegradability of an insecticide may be measured by administering measured doses of a tritium labeled test insecticide to a subject. Some time later the subject is sacrificed, liquefied, and a sample of the liquefied insect is placed on a thin layer chromotagraphy (tlc) plate. The plate is developed in a suitable solvent and Rf values of the various compounds contained in the sample are measured against known Rf values of previously synthesized theoretical metabolic breakdown products. The amount of each metabolite present may thus be measured by measuring the ^3 H at each separately resolved spot on the tlc plate. A permanent record may be made by exposing film to the plate to form a ratioautograph.

[5] = system: Salt-marsh caterpillar; test: Metabolism of 3H-ethoxyaniline by salt-marsh caterpillar larvae; conditions: for Salt-marsh caterpillar, percent 3H in Excreta / Salt-marsh caterpillar, percent 3H in Homogenate: 24 hr after feeding 0.5 mg 3H-ethoxyaniline (compound III)
Method: as §1, §2

[6] = Metabolism of 3H-labeled compound by mouse liver homogenate; conditions: for Mouse liver, percent 3H in homogenate: 0.01 μM 3H-labeled compound III, 1 hr incubation, NADPH and nicotinamide
Method: as §1, §2

[7] = system: insects; conditions: background; cited from earlier work
[8] = background; cited from earlier work
[9] = system: Musca domestica Snaidm; test: Topical LD50 to adult female SNAIDM houseflies
Method: as §1
(§3) Since piperonyl butoxide serves to block the action of MFO, the synergized LD50 values express the intrinsic toxicity of the compounds. With the detoxifying action of MFO enzymes blocked, the intrinsic toxicity of the compounds can thus be measured.

[10] = system: Culex fatigans larvae; test: LC50 to Culex fatigans larvae; type: in vivo, Culex pipiens quinquefasciatus Say
Excerpt: (§4) World Health Org. 363 (1971). […] Food Chem. 1145 (1970). […] Sci. Tech. 709 (1971). The results are detailed in Table II. ##SPC1##

[11] = system: Phormia regina; test: whole plant or invertebrate; conditions: topical
Method: as §1, with “363 (1971).” left out, “Food Chem. 1145 (1970).” left out, “Tech.” for “Tech. 709 (1971).”
as §3

[12] = system: Anopheles albimanus larvae; test: LC50 to Anopheles albimanus larvae; type: in vivo, Anopheles albimanus Weid
Excerpt: as §4

[13] = system: Musca domestica Rsp; test: Topical LD50 to adult female RSP houseflies
Method: as §1, §3

[14] = model ecosystem, Kapoor et al., 20(1) J. Agr. Food Chem. 1 (1972)
[15] = female RSP housefly, topical 1.0 μg, 24 hr
[16] = synergistic ratio: LD50 alone/LD50 synergized with piperonyl butoxide

## CCOc1ccc(C(c2ccc(OCC)cc2)C(Cl)(Cl)Cl)cc1 [Ethoxychlor, 2,2-bis(p-ethoxyphenyl)-1,1,1-trichloroethane]
[1]; [14]
  concentration found in the fish: 0.92 ppm
  concentration found in the snail: 58.6 ppm
[1]; ratio of parent material in fish to concentration in water, Kapoor et al.
  ecological magnification (E.M.): 1500 fold
[1]; total recovered polar/total recovered nonpolar metabolites, ethoxychlor evaluated by Kapoor et al.
  Biodegradability Index (B.I.): 0.44
[2]
  biodegradability (in words): substantially biodegradable; also recorded: substantially more biodegradable than DDT

## Clc1ccc(C(c2ccc(Cl)cc2)C(Cl)Cl)cc1 [DDD, 1,1-dichloro-2,2-bis(p-chlorophenyl)ethane]
[3]
  susceptibility to MFO enzymes (in words): do not function on DDT and its metabolic derivatives DDE and DDD

## CCOc1ccc(N)cc1 [C2 H5 OC6 H4 NH2, p-ethoxyaniline]
[4]
  Female housefly, percent 3H in Excreta: 9.1%
  Female housefly, percent 3H in Homogenate: 8.3%
[5]
  Salt-marsh caterpillar, percent 3H in Excreta: 8.4%
  Salt-marsh caterpillar, percent 3H in Homogenate: 15.0%
[2]; 33 days
  Concentration of ethoxyaniline equivalents in Culex (mosquito): 0.01 ppm
  Concentration of ethoxyaniline equivalents in Gambusia (fish): 0.03 ppm
  Concentration of ethoxyaniline equivalents in Oedogonium (algae): 0.42 ppm
  Concentration of ethoxyaniline equivalents in Physa (snail): 2.556 ppm
[2]; H2O, 33 days
  Concentration of ethoxyaniline equivalents in H2O: 0.053 ppm
[6]
  Mouse liver, percent 3H in homogenate: 13.7%

## Cc1ccc(C(c2ccc(C)cc2)C(Cl)(Cl)Cl)cc1 [methylchlor, 1,1,1-trichloro-2,2-bis(p-methylphenyl)ethane]
[7]
  insecticidal activity (in words): considerably less insecticidal activity than DDT towards other species of insects

## ClC(Cl)=C(c1ccc(Cl)cc1)c1ccc(Cl)cc1 [DDE, 1,1-dichloro-2,2-bis(p-chlorophenyl) ethylene]
[3]
  susceptibility to MFO enzymes (in words): do not function on DDT and its metabolic derivatives DDE and DDD

## CSc1ccc(C(c2ccc(SC)cc2)C(Cl)(Cl)Cl)cc1 [methiochlor, 1,1,1-trichloro-2,2-bis-(p-methiophenyl)ethane]
[3]
  susceptibility to MFO enzymes (in words): readily attacked by MFO enzymes
[7]
  insecticidal activity (in words): considerably less insecticidal activity than DDT towards other species of insects

## CCOc1ccc(C(=O)C(Cl)Cl)cc1 [C2 H5 OC6 H4 C(O)CHCl2, p-ethoxydichloroacetophenone]
[4]
  Female housefly, percent 3H in Excreta: 9.7%
  Female housefly, percent 3H in Homogenate: 10.4%
[5]
  Salt-marsh caterpillar, percent 3H in Excreta: 3.1%
  Salt-marsh caterpillar, percent 3H in Homogenate: 8.7%
[2]; 33 days
  Concentration of ethoxyaniline equivalents in Gambusia (fish): 0.28 ppm
  Concentration of ethoxyaniline equivalents in Oedogonium (algae): 0.3 ppm
  Concentration of ethoxyaniline equivalents in Physa (snail): 3.542 ppm

## COc1ccc(C(c2ccc(OC)cc2)C(Cl)(Cl)Cl)cc1 [methoxychlor, 1,1,1-trichloro-,2,2-bis(p-methoxyphenyl)ethane]
[8]
  accumulation in animal tissues (in words): not generally accumulated in animal tissues
[3]
  susceptibility to MFO enzymes (in words): readily attacked by MFO enzymes
[7]
  insecticidal activity (in words): considerably less insecticidal activity than DDT towards other species of insects

## CCOc1ccc(NC(c2ccc(OCC)cc2)C(Cl)(Cl)Cl)cc1 (stereo not drawn) [Compound III, α-trichloromethyl-p-ethoxybenzyl-p-ethoxyaniline]
[4]
  Female housefly, percent 3H in Excreta: 22.9%
  Female housefly, percent 3H in Homogenate: 37.6%
[4]; [15]
  3H recovered as body homogenate: 65%
  3H recovered as body wash: 19.2%
  3H recovered as excreta: 10%
[4]; female RSP housefly, topical 1.0 μg, 24 hr, total
  recovery of the 3H: 94.2%
[4]; insects (housefly, caterpillar) and mouse liver homogenate
  metabolic pathway in insect and mammal (in words): metabolized in both the insect and the mammal by O-dealkylation to form both mono- and bis- phenols
[5]; 4th instar larvae, 0.5 mg fed, 24 hr
  3H recovered in excreta: 75%
[5]
  Salt-marsh caterpillar, percent 3H in Excreta: 2.5%
  Salt-marsh caterpillar, percent 3H in Homogenate: 9.0%
[9]; Musca domestica, topical, read-out: Topical LD50, Musca domestica Snaidm, Alone
  LD50: 15.5 mg/kg
[9]; SNAIDM strain, synergized with piperonyl butoxide, topical
  Topical LD50, Musca domestica Snaidm, with pb: 4.2 μg per g
[9]; [16]
  SR, Musca domestica Snaidm: 3.7
[10]
  LC50 Culex fatigans larvae: 0.19 ppm
[11]; Phormia regina, read-out: Topical LD50, Phormia regina, Alone
  LD50: 33.7 mg/kg
[11]; synergized with piperonyl butoxide
  Topical LD50, Phormia regina, with pb: 9.7 μg per g
[2]; 33 days
  Concentration of ethoxyaniline equivalents in Culex (mosquito): 0.28 ppm
  Concentration of ethoxyaniline equivalents in Gambusia (fish): 0.04 ppm
  Concentration of ethoxyaniline equivalents in Oedogonium (algae): 1.09 ppm
  Concentration of ethoxyaniline equivalents in Physa (snail): 22.68 ppm
[2]; H2O, 33 days
  Concentration of ethoxyaniline equivalents in H2O: 0.055 ppm
[2]
  biodegradability (in words): substantially biodegradable; also recorded: by far superior in both E.M. and B.I
[2]; ratio of parent material in fish to concentration in water
  ecological magnification (E.M.): 0.7 fold
[2]; total 3H, Culex, 33 days
  Total 3H in Culex (mosquito) (ethoxyaniline equivalents): 1.0 ppm
[2]; total 3H, Gambusia, 33 days
  Total 3H in Gambusia (fish) (ethoxyaniline equivalents): 0.30 ppm
[2]; total 3H, H2O, 33 days
  Total 3H in H2O (ethoxyaniline equivalents): 0.363 ppm
[2]; total 3H, Oedogonium, 33 days
  Total 3H in Oedogonium (algae) (ethoxyaniline equivalents): 3.03 ppm
[2]; total 3H, Physa, 33 days
  Total 3H in Physa (snail) (ethoxyaniline equivalents): 36.0 ppm
[6]
  Mouse liver, percent 3H in homogenate: 30%
[6]; mouse liver homogenate, 1 hr
  metabolic pathway (in words): attacked by O-dealkylation to produce either one or both of the monophenolic derivatives
[12]
  LC50 Anopheles albimanus larvae: 0.28 ppm
[13]; Musca domestica, topical, read-out: Topical LD50, Musca domestica Rsp, Alone
  LD50: 20.5 mg/kg
[13]; RSP strain, synergized with piperonyl butoxide, topical
  Topical LD50, Musca domestica Rsp, with pb: 6.5 μg per g
[13]; [16]
  SR, Musca domestica Rsp: 3.2

## Oc1ccc(NC(c2ccc(O)cc2)C(Cl)(Cl)Cl)cc1 (stereo not drawn) [HOC6 H4 NHCH(CCl3)C6 H4 OH, α-trichloromethyl-p-hydroxybenzyl-p-hydroxyaniline]
[4]
  Female housefly, percent 3H in Excreta: 5.7%
  Female housefly, percent 3H in Homogenate: 8.4%
[2]; 33 days
  Concentration of ethoxyaniline equivalents in Gambusia (fish): 0.03 ppm
  Concentration of ethoxyaniline equivalents in Physa (snail): 1.512 ppm

From US3941842A, “P,P'-Disubstituted α-trichloromethylbenzylanilines” (priority 1972, dated 1976)
